Measurements reported in patent US9399032B2, “Methods and compositions for treating degenerative and ischemic disorders” (The General Hospital Corporation, priority 2009, dated 2016).

What was measured:
MCH58 fibroblasts = conditions: 72 h, 10 µM
isolated mitochondria = experiment: Effect of phosphoethanolamine on uncoupled respiration of isolated mitochondria; type: biochemical; conditions: ~1 min incubation, 1 μM CCCP
Description: Mitochondria were isolated from C57BL/6 mouse kidneys by differential centrifugation and resuspended in experimental buffer to a final concentration of 0.15 mg/ml. Mootha et al., Am J Physiol 272:H769 (1997). State 2 respiration was initiated with the addition of 2.5 mM glutamate and 2.5 mM malate. State 3 respiration was initiated with the addition of 50 nmoles ADP. […] O2 consumption was monitored with a Fiber Optic Oxygen sensor probe from Ocean Optics, and NADH (endogenous, 370±7 nm excitation, 440±4 nm emission) and membrane potential (1.25 μM TMRM, 546±7 nm excitation, 590±4 nm emission) were measured with a Perkin-Elmer LS50B fluorimeter. A representative trace is shown from 6 independent experiments. 1M stock of phosphoethanolamine (Sigma P0503) was made in sterile water and pH was adjusted to 7.4 by 1N potassium hydroxide solution.
The upregulation of phosphoethanolamine was confirmed by orthogonal chromatography, as well as via ^31P-NMR. […] Previous studies have shown that phosphoethanolamine can be elevated in tumor cells, and that ethanolamine and PEA can directly silence mitochondrial OXPHOS. Zhu et al., J Lipid Res 49: 2197 (2008); and Modica-Napolitano et al., Biol Psychiatry 55:273 (2004). […]

human H 1 receptor = human H 1 receptor (Homo sapiens, UniProt P35367); experiment: H1 receptor competitive binding assay with [3H]pyrilamine; conditions: 3 nM [3H]pyrilamine
Chain of human H 1 receptor (P35367 whole entry): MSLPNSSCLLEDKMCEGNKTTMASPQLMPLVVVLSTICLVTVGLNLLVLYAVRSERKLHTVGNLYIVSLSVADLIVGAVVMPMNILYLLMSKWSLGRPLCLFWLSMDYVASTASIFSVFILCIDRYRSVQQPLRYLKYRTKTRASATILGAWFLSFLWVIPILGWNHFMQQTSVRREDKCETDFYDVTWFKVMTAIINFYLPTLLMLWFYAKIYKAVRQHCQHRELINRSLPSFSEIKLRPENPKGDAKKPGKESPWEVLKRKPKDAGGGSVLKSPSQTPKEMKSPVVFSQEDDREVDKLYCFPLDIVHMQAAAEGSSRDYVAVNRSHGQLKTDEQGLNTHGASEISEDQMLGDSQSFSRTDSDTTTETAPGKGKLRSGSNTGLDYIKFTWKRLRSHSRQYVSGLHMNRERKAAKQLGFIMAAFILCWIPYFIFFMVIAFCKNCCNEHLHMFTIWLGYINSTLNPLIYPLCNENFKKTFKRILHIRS
Description: The ability of each enantiomer to bind to the H1 receptor was evaluated using a competitive binding experiment with the racemate. In vitro binding of R-meclizine (R-Mec) and S-meclizine (S-Mec) to human H 1 receptor was determined by competitive binding assays in the presence of 3 nM [3H]pyrilamine. Non-specific binding was determined in the presence of excess (1 μM) unlabeled Pyrilamine. IC50 were determined by non-linear regression analysis of the competition curves.

AMPK = experiment: Western blot detection of AMPK phosphorylation; type: cell-based; conditions: C2C12 myotubes, 24 hours of treatment
Description: The ability of meclizine, S-meclizine and R-meclizine to activate AMPK in C2C12 myotubes was also evaluated using Western blot detection of AMPK phosphorylation in C2C12 myotubes following 24 hours of treatment with R-meclizine (R-Mec), S-meclizine (S-Mec) and the racemic mixture (Rac-Mec).

[1] = test system: STHdhQ111/111 striatal cells; experiment: Viability of mutant huntingtin striatal cells after serum withdrawal (CellTiter-Glo); type: cell-based, murine; conditions: serum free media, 24 hours
Description: Wherever indicated, mutant (STHdh^Q111/111) striatal cells were grown in serum free media for ˜24 hours before ATP measurement. Luminescence was measured in DTX880 multimode detector. Multiple concentrations (between 100 μM and 0.5 μM) of rotenone, antimycin, oligomycin, meclizine, hydroxyzine (Spectrum chemical), thiethylperazine (Prestwick), cyproheptadine (Sigma), pyrilamine (Spectrum chemical), tripelennamine (Spectrum chemical), diphenhydramine (Spectrum chemical), clemastine (Prestwick), bromopheniramine (Spectrum chemical), pheniramine (Spectrum chemical), promethazine (MSDiscovery 01500510), atropine (Sigma), and scopolamine (Sigma) were tested for their protective effect on STHdh^Q111/111 cells in serum free media. The dose which conferred maximum protection is shown. Luminescence was measured in DTX880 multimode detector.
Although it is not necessary to understand the mechanism of an invention, it is believed that the observed cell survival may be due to suppressed apoptosis based on caspase 3 and 7 cleavage. Improved cell viability was confirmed by microscopy.

C2C12 myotubes = experiment: [3H]-2-deoxyglucose uptake; type: cell-based; conditions: 50 micromolar, four hours
Description: Fully differentiated C2C12 myotubes were subjected to a glucose uptake protocol, as follows. Briefly, C2C12 myotube cells were incubated for four hours in serum-free media containing either 0.1% DMSO as a control, 50 micromolar meclizine, 50 micromolar S-meclizine, or 2 mM metformin. Cells were subsequently incubated for thirty minutes in serum and glucose free buffer and then transitioned to buffer containing [3H]-2-deoxyglucose for five minutes. After multiple wash steps, cells were lysed and the lysate was subjected to scintillation counting to quantify uptake. Data were prepared as raw counts per minute, which is proportional to 2-deoxyglucose uptake.

[2] = test system: purified recombinant PCYT2; experiment: PCYT2 enzyme assay in vitro; type: biochemical; conditions: 50-1000 μM meclizine or 50-600 μM S-meclizine
Description: FIGS. 16 C-D are line graphs showing that PCYT2 (CTP:phosphoethanolamine cytidylyltransferase 2) is a target of meclizine (16C) and S-meclizine (16D). PCYT2 enzyme assays were carried out in vitro with purified recombinant PCYT2 in the presence of 50-1000 μM meclizine or 50-600 μM of S-meclizine.
CTP:Phosphoethanolamine Cytidylyltransferase (PCYT2) catalyzes the formation of CDP-ethanolamine, which is often the rate regulatory step in the PE-Kennedy pathway. See, e.g., Fullerton et al., J Biol Chem 18; 284(38):25704-13 (2009). To determine whether meclizine affects PCYT2 activity, PCYT2 (CTP:phosphoethanolamine cytidylyltransferase 2) enzyme assays were carried out in vitro with purified recombinant PCYT2 in the presence of 50-1000 μM meclizine or 50-600 μM of S-meclizine. For additional details see Zhu et al., J Lipid Res 49: 2197 (2008).

[3] = test system: C. elegans expressing 128Q huntingtin fragment in touch receptor neurons; conditions: even lower doses; cited from earlier work

Q: With `COc1ccc2c(c1)O[C@@H]1COc3cc(OC)c(OC)cc3[C@@H]1C2=O` [Mundoserone] as the compound, how does the “Sglu/gal (log10 fold change) Score” value (MCH58 fibroblasts) read?
A: 0.57

Q: For `NCCOP(=O)(O)O` [PEA, phosphoethanolamine], which “uncoupler-stimulated respiration in isolated mitochondria” value (isolated mitochondria) is on record?
A: blocks uncoupler-stimulated respiration

Q: For `Cc1cccc(CN2CCN([C@@H](c3ccccc3)c3ccc(Cl)cc3)CC2)c1` [S-meclizine, S-Meclizine], which “affinity on the H1 receptor” value (human H 1 receptor) is on record?
A: much weaker affinity

Q: And the “AMPK activation (phosphorylation)” value (AMPK)?
A: activate AMPK

Q: What about the “protection of STHdhQ111/111 cells after serum withdrawal” value [1] of the same compound?
A: is protective

Q: And the basal glucose uptake (C2C12 myotubes)?
A: promoted increased basal glucose uptake

Q: And the “PCYT2 binding and inhibition” value [2]?
A: binD to, and inhibit

Q: With `C=C(C)[C@H]1Cc2c(ccc3c2O[C@@H]2COc4cc(OC)c(OC)cc4[C@@H]2C3=O)O1` [rotenone] as the compound, how does the “toxicity in worms (Varma et al.)” value [3] read?
A: strong developmental delay with severe toxicity

Q: What about the “protection of STHdhQ111/111 cells after serum withdrawal” value [1] of the same compound?
A: rescue
